According to the supplement of paper PMC10307832:

What was measured:
Experiment in all cases: relative viability (nuclei count vs DMSO), 5 days (fraction); higher = more cells survive
Lestaurtinib + Olaparib = compound: C[C@]12O[C@H](C[C@]1(O)CO)n1c3ccccc3c3c4c(c5c6ccccc6n2c5c31)CNC4=O [Lestaurtinib] + O=C(c1cc(Cc2n[nH]c(=O)c3ccccc23)ccc1F)N1CCN(C(=O)C2CC2)CC1 [Olaparib] (partner 8 µM)
Summary of the method: (§1)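 Relative viability was taken as the ratio of nuclei in treated wells to nuclei in vehicle wells. Lung cancer cell lines in 1536-well plates received compounds by pin tool one day after seeding, either one drug alone or a fixed anchor-drug dose plus five library-drug doses (not always all listed) in √10 steps. Nuclei were counted on 4× images after 5 days of treatment, and values are medians of duplicate plates.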

[1] = compound: C[C@]12O[C@H](C[C@]1(O)CO)n1c3ccccc3c3c4c(c5c6ccccc6n2c5c31)CNC4=O [Lestaurtinib] + CC(C)C[C@H](NC(=O)[C@H](Cc1ccccc1)NC(=O)c1cnccn1)B(O)O [Bortezomib] (partner 0.002 µM)
Summary of the method: as §1

[2] = compound: C1/C(=C\C2=CC=CS2)/C(=O)/C(=C/C3=CC=CS3)/C1 + Cc1cc(Nc2cc(N3CCN(C)CC3)nc(Sc3ccc(NC(=O)C4CC4)cc3)n2)n[nH]1 [Tozasertib] (partner 0.1 µM)
Summary of the method: as §1

[3] = compound: C[C@]12O[C@H](C[C@]1(O)CO)n1c3ccccc3c3c4c(c5c6ccccc6n2c5c31)CNC4=O [Lestaurtinib] + CS(=O)(=O)N1CCN(Cc2cc3nc(-c4cccc5[nH]ncc45)nc(N4CCOCC4)c3s2)CC1 [Pictilisib] (partner 1 µM)
Summary of the method: as §1

Cell Line	relative viability (Lestaurtinib + Olaparib; first compound 0.005 µM)	relative viability (Lestaurtinib + Olaparib; first compound 0.01581 µM)	relative viability (Lestaurtinib + Olaparib; first compound 0.05 µM)	relative viability (Lestaurtinib + Olaparib; first compound 0.1581 µM)	relative viability (Lestaurtinib + Olaparib; first compound 0.5 µM)	relative viability ([1]; first compound 0.005 µM)	relative viability ([1]; first compound 0.01581 µM)	relative viability ([1]; first compound 0.05 µM)	relative viability ([1]; first compound 0.1581 µM)	relative viability ([1]; first compound 0.5 µM)	relative viability ([2]; first compound 0.2 µM)	relative viability ([2]; first compound 0.6325 µM)	relative viability ([2]; first compound 2 µM)	relative viability ([2]; first compound 6.325 µM)	relative viability ([2]; first compound 20 µM)	relative viability ([3]; first compound 0.005 µM)	relative viability ([3]; first compound 0.01581 µM)	relative viability ([3]; first compound 0.05 µM)	relative viability ([3]; first compound 0.1581 µM)	relative viability ([3]; first compound 0.5 µM)
NCI-H1993	0.76	1.16	1.14	1.04	0.463	1.11	1	1.45	0.788	0.594	0.567	0.556	0.594	0.559	0.506	0.802	0.724	0.69	0.716	0.663
NCI-H1437	0.671	0.662	0.571	0.67	0.553	0.67	0.479	0.431	0.521	0.429	0.408	0.413	0.452	0.273	0.407	0.466	0.491	0.375	0.245	0.14
NCI-H838	0.911	0.796	0.549	0.348	0.162	0.79	0.783	0.615	0.472	0.148	0.295	0.264	0.321	0.216	0.231	0.492	0.479	0.378	0.309	0.169
NCI-H1666	0.779	0.799	0.871	0.976	0.827	0.87	1.25	0.969	0.765	0.35	0.574	0.658	0.609	0.538	0.538	0.46	0.486	0.39	0.358	0.388
NCI-H2023	0.519	0.493	0.578	0.364	0.18	1.03	1.11	0.731	0.65	0.108	0.428	0.507	0.397	0.346	0.259	0.255	0.27	0.167	0.155	0.0782
NCI-H1755	0.953	0.944	0.753	0.628	0.373	1.01	0.95	0.938	0.455	0.371	0.64	0.583	0.582	0.539	0.549	0.444	0.492	0.211	0.269	0.175
NCI-H23	0.327	0.295	0.291	0.301	0.203	0.904	1.04	0.642	1.1	0.255	0.374	0.394	0.373	0.421	0.323	0.5	0.468	0.353	0.375	0.204
ABC-1	0.735	0.785	0.902	1.13	0.937	0.352	0.332	0.292	0.308	0.2	0.182	0.17	0.195	0.195	0.218	0.676	0.747	0.4	0.596	0.226
201T	0.89	0.712	0.882	0.937	0.552	1.17	1.12	1.17	1.24	0.937	0.959	0.968	1	0.897	0.911	0.677	0.691	0.64	0.601	0.533
NCI-H1734	0.647	0.626	0.578	0.533	0.271	1.08	0.904	0.681	0.456	0.325	0.282	0.293	0.263	0.167	0.287	0.444	0.399	0.316	0.251	0.196
NCI-H520	0.383	0.421	0.315	0.319	0.254	0.712	0.724	0.282	0.321	0.224	0.531	0.506	0.458	0.398	0.406	0.279	0.319	0.211	0.228	0.18
NCI-H1650	0.596	0.79	0.787	1.22	0.631	0.183	0.236	0.197	0.199	0.193	0.492	0.445	0.395	0.435	0.343	0.594	0.662	0.566	0.463	0.153
NCI-H1355	0.804	0.754	0.563	0.566	0.369	1.36	1.2	1.21	1.03	0.571	0.565	0.577	0.603	0.562	0.48	0.412	0.363	0.314	0.389	0.273
NCI-H1915	0.259	0.285	0.273	0.296	0.143	0.971	1.06	0.6	0.949	0.284	0.428	0.456	0.447	0.422	0.446	0.945	0.966	0.654	0.418	0.282
BEN	1.24	1.07	1.1	0.853	0.521	0.74	0.998	0.637	0.74	0.328	0.474	0.506	0.506	0.52	0.6	0.641	0.693	0.452	0.481	0.281
NCI-H3122	0.862	0.637	0.552	0.598	0.5	1.06	1.05	1.06	1.05	0.502	0.393	0.498	0.396	0.391	0.442	0.671	0.798	0.628	0.45	0.423

Cell Line	relative viability (Lestaurtinib + Olaparib; first compound 0.005 µM)	relative viability (Lestaurtinib + Olaparib; first compound 0.01581 µM)	relative viability (Lestaurtinib + Olaparib; first compound 0.05 µM)	relative viability (Lestaurtinib + Olaparib; first compound 0.1581 µM)	relative viability (Lestaurtinib + Olaparib; first compound 0.5 µM)	relative viability ([1]; first compound 0.005 µM)	relative viability ([1]; first compound 0.01581 µM)	relative viability ([1]; first compound 0.05 µM)	relative viability ([1]; first compound 0.1581 µM)	relative viability ([1]; first compound 0.5 µM)	relative viability ([2]; first compound 0.2 µM)	relative viability ([2]; first compound 0.6325 µM)	relative viability ([2]; first compound 2 µM)	relative viability ([2]; first compound 6.325 µM)	relative viability ([2]; first compound 20 µM)	relative viability ([3]; first compound 0.005 µM)	relative viability ([3]; first compound 0.01581 µM)	relative viability ([3]; first compound 0.05 µM)	relative viability ([3]; first compound 0.1581 µM)	relative viability ([3]; first compound 0.5 µM)
HOP-62	0.287	0.763	0.515	0.525	0.16	0.863	0.707	0.913	1.42	0.696	0.368	0.39	0.348	0.302	0.39	0.742	0.693	0.642	0.604	0.427
HCC-366	0.375	0.338	0.35	0.455	0.254	1.13	1.11	0.565	1.05	0.43	0.105	0.0974	0.101	0.0969	0.0897	0.159	0.178	0.192	0.101	0.0482
NCI-H2347	0.567	0.639	0.581	0.529	0.607	0.871	1.49	1.17	0.961	0.797	0.666	0.574	0.596	–	0.738	0.692	0.996	0.485	0.472	0.532
LXF-289	1.09	1.08	0.753	0.852	0.172	0.975	1.08	0.75	0.762	0.185	0.196	0.207	0.193	0.151	0.178	0.715	0.756	0.475	0.523	0.247
LU99A	0.211	0.25	0.161	0.196	0.142	1.02	1.02	0.516	0.382	0.208	0.287	0.284	0.266	0.267	0.301	0.298	0.312	0.253	0.205	0.179
PC-14	0.252	0.243	0.242	0.238	0.179	0.993	0.778	0.83	0.623	0.434	0.604	0.59	0.597	0.571	0.595	0.639	0.49	0.283	0.254	0.171
NCI-H2085	0.804	0.755	0.835	0.935	0.84	1	0.969	0.973	1.33	0.803	0.867	0.898	0.792	0.799	0.718	0.482	0.474	0.465	0.476	0.49
HCC-78	0.843	0.835	0.765	0.566	0.385	0.47	0.488	0.425	0.283	0.29	0.423	0.593	0.45	0.37	0.454	0.19	0.225	0.203	0.136	0.169
NCI-H2126	1.03	0.971	0.812	0.852	0.842	1.19	1.11	0.957	1.17	0.861	0.888	0.831	0.878	0.814	0.798	0.493	0.525	0.415	0.449	0.411
H3255	0.563	0.535	0.54	0.525	0.397	0.773	0.982	0.648	0.903	0.351	0.714	0.617	0.566	0.537	0.546	0.5	0.393	0.388	0.277	0.164
HCC-15	0.863	0.756	0.782	0.777	0.167	1.04	1.28	0.868	0.868	0.194	0.422	0.497	0.367	0.397	0.357	0.854	0.872	0.609	0.477	0.176
NCI-H661	0.813	0.754	0.684	0.735	0.419	0.736	0.813	0.831	0.685	0.436	0.324	0.361	0.374	0.308	0.36	0.35	0.461	0.411	0.352	0.336
NCI-H2009	0.589	0.754	0.577	0.843	0.473	1.01	0.967	0.801	0.755	0.167	0.764	0.814	0.752	0.657	0.81	0.795	0.691	0.43	0.54	0.149
HCC-44	0.994	0.984	0.96	1.16	0.675	0.925	0.997	0.873	1.06	0.683	1.04	0.609	0.928	0.837	0.923	0.528	0.758	0.466	0.569	0.448
ChaGo-K-1	0.424	0.464	0.427	0.387	0.279	0.944	1.51	0.931	0.718	0.5	0.241	0.235	0.259	0.212	0.197	0.726	1.15	0.663	0.421	0.356
COR-L23	0.374	0.428	0.37	0.339	0.156	1.21	1.07	–	0.697	0.464	0.223	0.203	0.197	0.185	0.193	0.688	0.723	–	0.332	0.208
